# Laboratory results reported in US10961258B2, “Heterocyclic amides as kinase inhibitors” (GLAXOSMITHKLINE INTELLECTUAL PROPERTY DEVELOPMENT LIMITED, priority 2015, dated 2021).
# Assays:
# [1] = test system: human monocytic leukemia U937 cells; test: U937 necroptosis assay (TNFα + QVD, Cell Titer-Glo viability); assay type: cell-based; settings: U-937, QVD 50 uM, TNFα 100 ng/ml overnight, cellular ATP by Cell Titer-Glo
# Protocol: The efficacy of RIP1 inhibitors can be tested […] in vitro using a human monocytic leukemia U937 cells in a necroptosis assay (He, S. et al. 2009. Cell 137(6): 1100-1111). Cells were maintained in RPMI supplemented with 10% fetal bovine serum 100 U/ml penicillin, 100 ug/ml streptomycin. For the assay, cells were suspended at 5e5 cells/ml in phenol red free RPMI supplemented with 1% fetal bovine serum, 100 U/ml penicillin, 100 ug/ml streptomycin. Thirty-five (35) ul of the cell suspension was aliquotted into a white, half area assay plate. Five (5) ul each of QVD (final concentration 50 uM) or compound was added to the cells and incubated at 37° C. for 30 min to 1 h. Following the incubation, 5 ul TNFα (final concentration 100 ng/ml) was added to the cells and the samples were incubated overnight. The next day, cellular levels of ATP was determined using the Cell Titer-Glo Luminescent Cell Viability kit (available from Promega Corporation, Madison, Wis., USA). Viability was measured by quantitating cellular levels of ATP using the Cell Titer-Glo kit. All data are shown as means±standard deviation of the mean.
# [2] = target: T1, GST-RipK1(1-375) (Homo sapiens, UniProt Q13546); test: Fluorescent polarization based binding assay at the ATP binding pocket of RIP1; settings: FP competition with fluorescently labeled ATP competitive ligand 5 nM; GST-RipK1(1-375) 10 nM; mean of minimum 2 experiments
# T1 construct: GST-RipK1 Preparation: His.GST.TEV.RIPK1 1-375; His (N); TEV cleavage site (N); made in house; host or cells: Spodoptera frugiperda (Sf9) insect cells, baculovirus
# T1 sequence (Q13546 1-375): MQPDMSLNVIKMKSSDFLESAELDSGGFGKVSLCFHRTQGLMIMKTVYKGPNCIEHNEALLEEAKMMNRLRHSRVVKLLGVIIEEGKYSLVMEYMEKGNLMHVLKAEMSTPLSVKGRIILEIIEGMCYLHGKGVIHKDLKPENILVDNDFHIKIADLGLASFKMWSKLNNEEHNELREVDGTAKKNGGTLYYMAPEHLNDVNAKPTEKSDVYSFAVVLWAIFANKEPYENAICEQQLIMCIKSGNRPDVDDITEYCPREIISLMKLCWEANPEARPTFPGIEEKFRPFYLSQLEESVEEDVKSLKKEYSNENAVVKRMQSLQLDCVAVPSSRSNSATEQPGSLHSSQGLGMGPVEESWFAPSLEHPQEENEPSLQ
# Protocol: A fluorescent polarization based binding assay was developed to quantitate
# interaction of novel test compounds at the ATP binding pocket of RIP 1, by competition with a fluorescently labeled ATP competitive ligand. GST-RipK1(1-375) was purified from a Baculovirus expression system and was used at a final assay concentration of 10 nM. A fluorescent labeled ligand (14-(2-{[3-({2-{[4-(cyanomethyl)phenyl]amino}-6-[(5-20 cyclopropyl-1H-pyrazol-3-yl)amino]-4-pyrimidinyl}amino)propyl]amino}-2-oxoethyl)16,16,18,18-tetramethyl-6,7,7a,8a,9,10,16,18-octahydrobenzo[2″,3″ ]indolizino[8″,7″:5′,6′]pyrano[3′,2′:3,4]pyrido[1,2-a]indol-5-ium-2-sulfonate (prepared as described in WO2014125444, the disclosure of which is incorporated by reference herein) was used at a final assay concentration of 5 nM. Both the enzyme and ligand were prepared in solutions in 50 mM HEPES pH7.5, 10 mM 25 NaCl, 50 mM MgCl2, 0.5 mM DTT, and 0.02% CHAPS. Test compounds were prepared in neat DMSO and 100 nL was dispensed to individual wells of a multiwell plate. Next, 5 ul GST-RipK1(1-375) was added to the test compounds at twice the final assay concentration, and incubated at room temperature for 10 minutes. Following the incubation, 5 ul of the fluorescent labeled ligand solution, was added to each reaction, at twice the final assay concentration, and incubated at room temperature for at least 15 minutes. Finally, samples were read on an instrument capable of measuring fluorescent polarization. Test compound inhibition was expressed as percent (%) inhibition of internal assay controls. For concentration response experiments, normalized data were fit and pIC50s determined using conventional techniques. The pIC50s are averaged to determine a mean value, for a minimum of 2 experiments.
# The RIPK 1 gene [receptor (TNFRSF)-interacting serine-threonine kinase 1] was cloned from human adrenal gland cDNA. Primers were designed from the reference sequence NM_003804.3 with an added CACC Kozak directional tag for cloning into pENTR/TEV/D-TOPO. Gateway® LR cloning was used to site-specifically recombine RIPK1 downstream to an N-terminal HisGST contained within the destination vector pDEST8-His.GST according to the protocol described by Invitrogen.
Compound,IC50 [2],IC50 [1]
"Cc1cn(C)c2c1NC(=O)C(NC(=O)c1nnc(Cc3ccccc3)[nH]1)CC2 (stereo not shown) [Example 5, 5-Benzyl-N-(1,3-dimethyl-5-oxo-1,4,5,6,7,8-hexahydropyrrolo[3,2-b]azepin-6-yl)-4H-1,2,4-triazole-3-carboxamide]",631 nM,> 10000 nM
"O=C(NC1CCc2oc3c(c2NC1=O)CCCC3)c1nnc(Cc2ccccc2)[nH]1 (stereo not shown) [Example 10, 5-benzyl-N-(2-oxo-2,3,4,5,7,8,9,10-octahydro-1H-benzofuro[3,2-b]azepin-3-yl)-4H-1,2,4-triazole-3-carboxamide]",794 nM,–
"Cc1sc(C)c2c1CCC(NC(=O)c1nnc(Cc3ccccc3)[nH]1)C(=O)N2 (stereo not shown) [Example 1, 5-Benzyl-N-(6,8-dimethyl-2-oxo-2,3,4,5-tetra hydro-1H-thieno[3,4-b]azepin-3-yl)-4H-1,2,4-triazole-3-carboxamide]",100 nM,398 nM
"Cn1ccc2c1CCC(NC(=O)c1nnc(Cc3ccccc3)[nH]1)C(=O)N2 (stereo not shown) [Example 4, 5-Benzyl-N-(1-methyl-5-oxo-1,4,5,6,7,8-hexahydropyrrolo[3,2-b]azepin-6-yl)-4H-1,2,4-triazole-3-carboxamide]",794 nM,1260 nM
"O=C(NC1CCc2sccc2NC1=O)c1nnc(Cc2ccccc2)[nH]1 (stereo not shown) [Example 2, 5-Benzyl-N-(5-oxo-5,6,7,8-tetrahydro-4H-thieno[3,2-b]azepin-6-yl)-4H-1,2,4-triazole-3-carboxamide]",251 nM,794 nM

# Compounds with a lower IC50 [2], results first:
IC50 [2],Compound,IC50 [1]
79.4 nM,"Cc1cc2c(s1)CCC(NC(=O)c1nnc(Cc3ccccc3)[nH]1)C(=O)N2 (stereo not shown) [Example 3, 5-Benzyl-N-(2-methyl-5-oxo-5,6,7,8-tetrahydro-4H-thieno[3,2-b]azepin-6-yl)-4H-1,2,4-triazole-3-carboxamide]",631 nM
39.8 nM,"O=C(NC1CCc2[nH]c3ccccc3c2NC1=O)c1nnc(Cc2ccccc2)[nH]1 (stereo not shown) [Example 6, 5-Benzyl-N-(2-oxo-1,2,3,4,5,6-hexahydroazepino[3,2-b]indol-3-yl)-4H-1,2,4-triazole-3-carboxamide]",251 nM
25.1 nM,"O=C(N[C@H]1CSc2cccn2NC1=O)c1nnc(Cc2ccccc2)[nH]1 [Example 8, (R)-5-Benzyl-N-(4-oxo-2,3,4,5-tetrahydropyrrolo[2,1-b][1,3,4]thiadiazepin-3-yl)-4H-1,2,4-triazole-3-carboxamide]",79.4 nM
20 nM,"Cc1nsc2c1N(C)C(=O)[C@@H](NC(=O)c1nnc(Cc3ccccc3)[nH]1)CN2 [Example 7, (S)-5-Benzyl-N-(3,4-dimethyl-5-oxo-5,6,7,8-tetrahydro-4H-isothiazolo[4,5-b][1,4]diazepin-6-yl)-4H-1,2,4-triazole-3-carboxamide]",15.8 nM
10 nM,"CN1C(=O)[C@@H](NC(=O)c2nnc(Cc3ccccc3)[nH]2)CSc2cccn21 [Example 9, (R)-5-Benzyl-N-(5-methyl-4-oxo-2,3,4,5-tetrahydropyrrolo[2,1-b][1,3,4]thiadiazepin-3-yl)-4H-1,2,4-triazole-3-carboxamide]",5.01 nM
